Test results taken from patent US9555061B2, “Synthesis and analysis of compounds capable of inducing differentiation of human mesenchymal stems cells into hepatocytes” (National University Corporation Torrori University, priority 2011, dated 2017).

Key:
[1] = tested on: clinical specimen-derived mesenchymal stem cells; experiment: PAS staining in clinical specimen-derived mesenchymal stem cells; format: cell-based, human; conditions: day 8, PN-3-13 20 μM, IC-2 40 μM
Method: PAS staining was performed according to the following procedure. A cover glass that had been sterilized with 100% ethanol was placed on a 12-well plate. Cells were seeded on the cover glass at a cell density of 1.8×10^4 cells/cm^2. This day was designated as day 0. At day 1 corresponding to the next day, each medium was changed to a medium containing HC-2 (at a final concentration of 20 μM), PN-3-13 (at a final concentration of 20 μM), IC-2 (at a final concentration of 40 μM), or 0.1% DMSO. At day 4, the medium was changed in a manner similar to that at day 1, and the cells were cultured until day 8. At day 8, the cells were washed twice with PBS and were fixed with 4% paraformaldehyde for 30 min. As a negative control, α-amylase (Nacalai Tesque) at a final concentration of 10 mg/ml was added, and the cells were incubated therewith at 37° C. for 1 h to digest their glycogen. Subsequently, the cells were treated with 1% aqueous periodic acid for 5 min. Then, the cells were treated with a Schiff reagent (Nacalai Tesque) for 15 min to stain glycogen. After that, the cells were washed three times with aqueous sulfurous acid and were then washed three times with distilled water. The nuclei were stained with Mayer's Hematoxylin (MUTO PURE CHEMICALS CO., LTD.) for 1 min. […]

UE7T-13 cells [2] = experiment: Immunocytochemistry of hepatocyte markers (UE7T-13); format: cell-based, human; conditions: day 16
Method: A cover glass (22×22 mm, […]) was sterilized with 70% EtOH and placed in a 6-well plate. Next, cells were seeded on the cover glass and cultured in a medium containing IC-2, etc. At 8, 16, and […] after the initiation of the culture, the cells were washed twice with PBS. Then, the cells were treated with 4% paraformaldehyde/PBS for 20 min and fixed onto the cover glass. After that, the cells were permeated with 0.2% Triton X-100 for 10 min. Subsequently, the cells were blocked with 3% BSA/PBS for 30 min. An anti-albumin antibody, anti-C/EBP antibody, anti-AFP antibody, or anti-CYP1A1 antibody was used as a primary antibody, and the cells were incubated therewith at 4° C. overnight. Next, an Alexa Fluoro 488 goat anti-mouse antibody or Alexa Fluoro 594 goat anti-rabbit antibody was used as a secondary antibody, and the cells were incubated therewith at room temperature for 1 h. DAPI was used for nuclear staining. Thereafter, 50% glycerol diluted with PBS was used to mount the cover glass. Finally, the cells were observed under a confocal laser microscope. The cells which had been cultured with 0.1% DMSO were used as a control.

UE7T-13 cells [3] = experiment: Proliferation potential (toxicity), MTT assay (UE7T-13)
UE7T-13 cells [4] = experiment: Urea assay (UE7T-13); format: cell-based, human; conditions: day 16
Method: The cells were plated on a 24-well plate, and were cultured in a medium containing IC-2, etc. Ammonium chloride (at a final concentration of 5 mM) was added to the medium, and the cells were cultured for 48, 72, and 96 h. Then, an amount of urea in the medium was determined using a QuantiChrom Urea Assay Kit (BioAssay Systems) and a fluorescence plate reader (TECAN) at a wavelength of 520 nm.

[5] = tested on: Wnt/β-catenin signaling pathway; experiment: Luciferase assay in sorted bone marrow-derived mesenchymal stem cells; format: cell-based, human; conditions: 40 or 45 μM; 8 days after the treatment
Method: Human bone marrow mononuclear cells that had been purchased from Lonza Inc. were suspended in 1 ml of Hanks' balanced salt solution (HBSS, Gibco, Life Technologies Corp.) supplemented with a 100-fold diluted APC-labeled anti-CD90 antibody, a 407-fold diluted PE-labeled anti-CD271 antibody, and 2% fetal bovine serum (FBS, Defined, Thermo Fisher Scientific Inc.), and were stained on ice for 30 min. A flow cytometer (MoFlo XDP, Beckman Coulter Inc.) was used to selectively separate mesenchymal stem cells. The resulting cells were cultured in Dulbecco's Modified Eagle's Medium (Low Glucose, Gibco, Life Technologies Corp.) containing 20% FBS, 100 U/ml penicillin, […] streptomycin (Nacalai Tesque), and 20 ng/ml basic fibroblast growth factor (TRANS GENIC INC., Ltd.) on a 35-mm dish under conditions at 37° C. and 5% CO2. The medium was changed every 4 days. After colonies were formed, the cells were detached using a 0.025% trypsin/1 mM EDTA solution (Nacalai Tesque), split on a 100-mm dish, and cultured under conditions at 37° C. and 5% CO2. Then, the cells which were kept 70 to 80% confluent were detached using trypsin treatment. These cells in one dish were divided into four dishes for passage.
Cells were seeded on a 96-well plate at a cell density of 5.0×10^3 cells/cm^2. […]

Substance: (6S,9aS)-6-phenyl-8-naphthalen-1-ylmethyl-4,7-dioxo-hexahydro-pyrazino[1,2-a]pyrimidine-1-carbocylic acid benzylamide [IC-2]
- cellular glycogen accumulation compared with negative control (0.1% DMSO) [1]: apparent increase
- levels of expression of albumin, C/EBPα, CYP1A1, and CYP3A4 (UE7T-13 cells [2]): remarkably increased
- concentration with very low cell toxicity toward UE7T-13 cells (UE7T-13 cells [3]; days 2, 4, 8 of treatment): ≤ 20 µM
- concentration at which proliferation potential did not remain (UE7T-13 cells [3]; days 2, 4, and 8): 50 µM
- cellular urea synthesis compared with negative control (0.1% DMSO) (UE7T-13 cells [4]): remarkably increased
- inhibition of the Wnt/β-catenin signaling pathway (luciferase activity) [5]: significantly inhibited
